The source made the active and inactive calls. The calls are words filed in the database; no cut-off is given here.
Columns and labels:
[1] = tested on: Macrophage cell line; experiment: Cytotoxicity against human PBMC-differentiated macrophages treated for 24 hrs followed by compound washout and measured after 48 hrs by MTT assay; type: cell-based
[2] = tested on: Macrophage cell line; experiment: Antiinflammatory activity in human PBMC-differentiated macrophages assessed as inhibition of LPS-induced IL-8 production at 0.01 to 10 uM measured after 24 hrs by ELISA; type: functional, cell-based
[3] = tested on: Macrophage cell line; experiment: Induction of TNFalpha production in human PBMC-differentiated macrophages after 24 hrs by ELISA; type: cell-based
[4] = tested on: Macrophage cell line; experiment: Induction of IL-1beta production in human PBMC-differentiated macrophages after 24 hrs by ELISA; type: cell-based
[5] = tested on: Macrophage cell line; experiment: Induction of prostaglandin production in human PBMC-differentiated macrophages after 24 hrs by ELISA; type: cell-based
[6] = tested on: Staphylococcus aureus; experiment: Toxicity in Staphylococcus aureus ATCC 33592 up to 32 uM measured after 16 hrs; type: organism-based
[7] = tested on: Klebsiella pneumoniae; experiment: Toxicity in Klebsiella pneumoniae ATCC 13883 up to 32 uM measured after 16 hrs; type: organism-based
[8] = tested on: Enterococcus faecium; experiment: Toxicity in Enterococcus faecium ATCC 700221 up to 32 uM measured after 16 hrs; type: organism-based; conditions: in vitro
[9] = tested on: Pseudomonas aeruginosa; experiment: Toxicity in Pseudomonas aeruginosa ATCC BAA-2108 up to 32 uM measured after 16 hrs; type: organism-based; conditions: in vitro
[10] = tested on: Escherichia coli; experiment: Toxicity in Escherichia coli ATCC 43894 up to 32 uM measured after 16 hrs; type: organism-based
[11] = tested on: Staphylococcus aureus; experiment: Potentiation of methicillin-induced antibacterial activity against Staphylococcus aureus ATCC 33592 assessed as minimum modulatory concentration up to 32 uM measured after 16 hrs in presence of MIC/4 methicillin; type: functional; conditions: ATCC 33592, 16 h, read-out: MEC
[12] = tested on: Staphylococcus aureus; experiment: Potentiation of geneticin-induced antibacterial activity against Staphylococcus aureus ATCC 33592 assessed as minimum modulatory concentration up to 32 uM measured after 16 hrs in presence of MIC/4 geneticin; type: functional; conditions: ATCC 33592, 16 h, read-out: MEC
[13] = tested on: Staphylococcus aureus; experiment: Potentiation of ciprofloxacin-induced antibacterial activity against Staphylococcus aureus ATCC 33592 assessed as minimum modulatory concentration up to 32 uM measured after 16 hrs in presence of MIC/4 ciprofloxacin; type: functional; conditions: ATCC 33592, 16 h, read-out: MEC
[14] = tested on: Staphylococcus aureus; experiment: Potentiation of tetracycline-induced antibacterial activity against Staphylococcus aureus ATCC 33592 assessed as minimum modulatory concentration up to 32 uM measured after 16 hrs in presence of MIC/4 tetracycline; type: functional; conditions: ATCC 33592, 16 h, read-out: MEC
[15] = tested on: Staphylococcus aureus; experiment: Potentiation of erythromycin-induced antibacterial activity against Staphylococcus aureus ATCC 33592 assessed as minimum modulatory concentration up to 32 uM measured after 16 hrs in presence of MIC/4 erythromycin; type: functional; conditions: ATCC 33592, 16 h, read-out: MEC
[16] = tested on: Streptococcus pyogenes; experiment: Potentiation of methicillin-induced antibacterial activity against Streptococcus pyogenes ATCC 14289 assessed as minimum modulatory concentration up to 32 uM measured after 16 hrs in presence of MIC/4 methicillin; type: functional; conditions: ATCC 14289, 16 h, read-out: MEC
[17] = tested on: Streptococcus pyogenes; experiment: Potentiation of geneticin-induced antibacterial activity against Streptococcus pyogenes ATCC 14289 assessed as minimum modulatory concentration up to 32 uM measured after 16 hrs in presence of MIC/4 geneticin; type: functional; conditions: ATCC 14289, 16 h, read-out: MEC
[18] = tested on: Streptococcus pyogenes; experiment: Potentiation of ciprofloxacin-induced antibacterial activity against Streptococcus pyogenes ATCC 14289 assessed as minimum modulatory concentration up to 32 uM measured after 16 hrs in presence of MIC/4 ciprofloxacin; type: functional; conditions: ATCC 14289, 16 h, read-out: MEC
[19] = tested on: Streptococcus pyogenes; experiment: Potentiation of tetracycline-induced antibacterial activity against Streptococcus pyogenes ATCC 14289 assessed as minimum modulatory concentration up to 32 uM measured after 16 hrs in presence of MIC/4 tetracycline; type: functional; conditions: ATCC 14289, 16 h, read-out: MEC
[20] = tested on: Streptococcus pyogenes; experiment: Potentiation of erythromycin-induced antibacterial activity against Streptococcus pyogenes ATCC 14289 assessed as minimum modulatory concentration up to 32 uM measured after 16 hrs in presence of MIC/4 erythromycin; type: functional; conditions: ATCC 14289, 16 h, read-out: MEC
[21] = tested on: Klebsiella pneumoniae; experiment: Potentiation of methicillin-induced antibacterial activity against Klebsiella pneumoniae ATCC 13883 assessed as minimum modulatory concentration up to 32 uM measured after 16 hrs in presence of MIC/4 methicillin; type: functional; conditions: ATCC 13883, 16 h, read-out: MEC
[22] = tested on: Klebsiella pneumoniae; experiment: Potentiation of geneticin-induced antibacterial activity against Klebsiella pneumoniae ATCC 13883 assessed as minimum modulatory concentration up to 32 uM measured after 16 hrs in presence of MIC/4 geneticin; type: functional; conditions: ATCC 13883, 16 h, read-out: MEC
[23] = tested on: Klebsiella pneumoniae; experiment: Potentiation of erythromycin-induced antibacterial activity against Klebsiella pneumoniae ATCC 13883 assessed as minimum modulatory concentration up to 32 uM measured after 16 hrs in presence of MIC/4 erythromycin; type: functional; conditions: ATCC 13883, 16 h, read-out: MEC
[24] = tested on: Enterococcus faecium; experiment: Potentiation of methicillin-induced antibacterial activity against Enterococcus faecium ATCC 700221 assessed as minimum modulatory concentration up to 32 uM measured after 16 hrs in presence of MIC/4 methicillin; type: functional; conditions: ATCC 700221, 16 h, read-out: MEC
[25] = tested on: Enterococcus faecium; experiment: Potentiation of geneticin-induced antibacterial activity against Enterococcus faecium ATCC 700221 assessed as minimum modulatory concentration up to 32 uM measured after 16 hrs in presence of MIC/4 geneticin; type: functional; conditions: ATCC 700221, 16 h, read-out: MEC
[26] = tested on: Enterococcus faecium; experiment: Potentiation of ciprofloxacin-induced antibacterial activity against Enterococcus faecium ATCC 700221 assessed as minimum modulatory concentration up to 32 uM measured after 16 hrs in presence of MIC/4 ciprofloxacin; type: functional; conditions: ATCC 700221, 16 h, read-out: MEC
[27] = tested on: Enterococcus faecium; experiment: Potentiation of tetracycline-induced antibacterial activity against Enterococcus faecium ATCC 700221 assessed as minimum modulatory concentration up to 32 uM measured after 16 hrs in presence of MIC/4 tetracycline; type: functional; conditions: ATCC 700221, 16 h, read-out: MEC
[28] = tested on: Enterococcus faecium; experiment: Potentiation of erythromycin-induced antibacterial activity against Enterococcus faecium ATCC 700221 assessed as minimum modulatory concentration up to 32 uM measured after 16 hrs in presence of MIC/4 erythromycin; type: functional; conditions: ATCC 700221, 16 h, read-out: MEC
[29] = tested on: Pseudomonas aeruginosa; experiment: Potentiation of ciprofloxacin-induced antibacterial activity against Pseudomonas aeruginosa ATCC BAA-2108 assessed as minimum modulatory concentration up to 32 uM measured after 16 hrs in presence of MIC/4 ciprofloxacin; type: functional; conditions: ATCC BAA-2108, 16 h, read-out: MEC
[30] = tested on: Pseudomonas aeruginosa; experiment: Potentiation of tetracycline-induced antibacterial activity against Pseudomonas aeruginosa ATCC BAA-2108 assessed as minimum modulatory concentration up to 32 uM measured after 16 hrs in presence of MIC/4 tetracycline; type: functional; conditions: ATCC BAA-2108, 16 h, read-out: MEC
[31] = tested on: Pseudomonas aeruginosa; experiment: Potentiation of erythromycin-induced antibacterial activity against Pseudomonas aeruginosa ATCC BAA-2108 assessed as minimum modulatory concentration up to 32 uM measured after 16 hrs in presence of MIC/4 erythromycin; type: functional; conditions: ATCC BAA-2108, 16 h, read-out: MEC
[32] = tested on: Escherichia coli; experiment: Potentiation of geneticin-induced antibacterial activity against Escherichia coli ATCC 43894 assessed as minimum modulatory concentration up to 32 uM measured after 16 hrs in presence of MIC/4 geneticin; type: functional; conditions: ATCC 43894, 16 h, read-out: MEC
[33] = tested on: Escherichia coli; experiment: Potentiation of ciprofloxacin-induced antibacterial activity against Escherichia coli ATCC 43894 assessed as minimum modulatory concentration up to 32 uM measured after 16 hrs in presence of MIC/4 ciprofloxacin; type: functional; conditions: ATCC 43894, 16 h, read-out: MEC
[34] = tested on: Escherichia coli; experiment: Potentiation of erythromycin-induced antibacterial activity against Escherichia coli ATCC 43894 assessed as minimum modulatory concentration up to 32 uM measured after 16 hrs in presence of MIC/4 erythromycin; type: functional; conditions: ATCC 43894, 16 h, read-out: MEC

Structure (SMILES) | IC50 [1] [µM] | inhibition [2] | Activity [3] | Activity [4] | Activity [5] | Activity [6] | Activity [7] | Activity [8] | Activity [9] | Activity [10] | minimal effective concentration [11] [µM] | minimal effective concentration [12] [µM] | minimal effective concentration [13] [µM] | minimal effective concentration [14] [µM] | minimal effective concentration [15] [µM] | minimal effective concentration [16] [µM] | minimal effective concentration [17] [µM] | minimal effective concentration [18] [µM] | minimal effective concentration [19] [µM] | minimal effective concentration [20] [µM] | other results
C[n+]1cc(O)c(C(=O)[O-])cc1-c1ccccc1 | 91.4 | inactive | Non-Toxic | Non-Toxic | Non-Toxic | Non-Toxic | Non-Toxic | Non-Toxic | Non-Toxic | Non-Toxic | > 32 | > 32 | > 32 | > 32 | > 32 | > 32 | > 32 | > 32 | > 32 | > 32 | minimal effective concentration [21]: > 32 µM; minimal effective concentration [22]: > 32 µM; minimal effective concentration [23]: > 32 µM; minimal effective concentration [24]: > 32 µM; minimal effective concentration [25]: > 32 µM; minimal effective concentration [26]: > 32 µM; minimal effective concentration [27]: > 32 µM; minimal effective concentration [28]: > 32 µM; minimal effective concentration [29]: > 32 µM; minimal effective concentration [30]: > 32 µM; minimal effective concentration [31]: > 32 µM; minimal effective concentration [32]: > 32 µM; minimal effective concentration [33]: > 32 µM; minimal effective concentration [34]: > 32 µM
COc1cccc(-c2cc(C(=O)[O-])c(O)c[n+]2C)c1 | 96 | inactive | Non-Toxic | Non-Toxic | Non-Toxic | Non-Toxic | Non-Toxic | Non-Toxic | Non-Toxic | Non-Toxic | > 32 | > 32 | > 32 | > 32 | > 32 | > 32 | > 32 | > 32 | > 32 | > 32 | minimal effective concentration [21]: > 32 µM; minimal effective concentration [22]: > 32 µM; minimal effective concentration [23]: > 32 µM; minimal effective concentration [24]: > 32 µM; minimal effective concentration [25]: > 32 µM; minimal effective concentration [26]: > 32 µM; minimal effective concentration [27]: > 32 µM; minimal effective concentration [28]: > 32 µM; minimal effective concentration [29]: > 32 µM; minimal effective concentration [30]: > 32 µM; minimal effective concentration [31]: > 32 µM; minimal effective concentration [32]: > 32 µM; minimal effective concentration [33]: > 32 µM; minimal effective concentration [34]: > 32 µM
COc1cccc(-c2cc(C(=O)O)c(O)cn2)c1 | 88.6 | inactive | Non-Toxic | Non-Toxic | Non-Toxic | Non-Toxic | Non-Toxic | Non-Toxic | Non-Toxic | Non-Toxic | 16 | > 32 | > 32 | > 32 | > 32 | > 32 | > 32 | > 32 | > 32 | > 32 | minimal effective concentration [21]: > 32 µM; minimal effective concentration [22]: > 32 µM; minimal effective concentration [23]: > 32 µM; minimal effective concentration [24]: 16 µM; minimal effective concentration [25]: > 32 µM; minimal effective concentration [26]: > 32 µM; minimal effective concentration [27]: > 32 µM; minimal effective concentration [28]: > 32 µM; minimal effective concentration [29]: > 32 µM; minimal effective concentration [30]: > 32 µM; minimal effective concentration [31]: > 32 µM; minimal effective concentration [32]: > 32 µM; minimal effective concentration [33]: > 32 µM; minimal effective concentration [34]: > 32 µM
